Literature values, collected in patent US8541025B2, “Co-crystals and pharmaceutical formulations comprising the same” (Vertex Pharmaceuticals Incorporated, priority 2008, dated 2013).
Where two headings read alike, the source gives them in different places.

Target: hepatitis C virus ("HCV") NS3/4A protease (Hepatitis C virus genotype 1a, UniProt P27958)
Sequence (P27958 1027-1657): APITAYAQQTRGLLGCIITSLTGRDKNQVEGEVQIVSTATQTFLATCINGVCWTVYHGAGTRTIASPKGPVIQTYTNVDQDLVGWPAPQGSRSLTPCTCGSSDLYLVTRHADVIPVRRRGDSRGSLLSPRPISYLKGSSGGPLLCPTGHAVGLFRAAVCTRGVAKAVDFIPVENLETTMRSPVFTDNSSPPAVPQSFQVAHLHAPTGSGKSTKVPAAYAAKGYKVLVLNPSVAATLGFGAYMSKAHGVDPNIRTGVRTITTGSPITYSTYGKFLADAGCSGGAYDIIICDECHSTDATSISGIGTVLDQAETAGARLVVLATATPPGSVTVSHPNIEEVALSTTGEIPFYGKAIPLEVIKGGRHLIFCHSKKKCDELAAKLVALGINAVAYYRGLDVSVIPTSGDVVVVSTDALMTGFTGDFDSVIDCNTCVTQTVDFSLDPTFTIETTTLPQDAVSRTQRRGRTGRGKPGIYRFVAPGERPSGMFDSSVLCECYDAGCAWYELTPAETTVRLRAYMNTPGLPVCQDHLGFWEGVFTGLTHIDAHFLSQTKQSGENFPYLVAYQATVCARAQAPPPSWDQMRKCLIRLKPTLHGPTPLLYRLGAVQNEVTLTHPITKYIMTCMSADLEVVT
Sequence (P27958 1658-1711): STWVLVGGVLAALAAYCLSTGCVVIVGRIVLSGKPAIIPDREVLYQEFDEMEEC

CC[C@H](NC(=O)[C@@H]1[C@H]2CCC[C@H]2CN1C(=O)[C@@H](NC(=O)C(NC(=O)c1cnccn1)C1CCCCC1)C(C)(C)C)C(=O)C(=O)NC1CC1 (some centres unmarked) [VX-950]
Ki (competitive, reversible inhibitor, read-out: steady state binding constant (ki*)): 3 nM | Ki (read-out: Ki): 8 nM
